Columns and labels:
HY19636 cells = assay: Intracellular amino acid levels in SLC38A2-deficient HY19636 cells after alanine supplementation; assay type: cell-based, mouse; conditions: SLC38A2-deficient (sgSlc38a2 #1) HY19636 cells, 1 mM, 24 hours
Method: (A) Serine, glycine, proline, and glutamate extracellular fluxes in SLC38A2-deficient (sgSLC38A2 #1, #3) and control (sgTom) HY19636, MiaPaCa2, and PANC1 cells cultured in DMEM. Extracellular accumulation (+, secretion) or depletion (−, uptake) was measured in conditioned media over 24 hours and normalized to the viable cell density over the time course. Error bars depict s.d. of three independent experiments. (B) Essential amino acid (leucine, isoleucine, valine, threonine) uptake fluxes in SLC38A2-deficient (sgSLC38A2 #1, #3) and control (sgTom) HY19636, MiaPaCa2, and PANC1 cells cultured in DMEM for 24 hours. Error bars depict s.d. of three independent experiments. […] Data presented as a percent change for each amino acid relative to that measured in DMEM conditions. […]
For ^13C- and ^15N-labeled alanine tracing experiments, cells were plated into 6-well plates at 250,000 cells/well and allowed to attach overnight. […] Fatty acid labeling from ^13C3-alanine was measured by transferring 400 μL of the inorganic layer to a glass vial and evaporating under nitrogen flow in a needle evaporator prior to transesterification and GC-MS analysis. To quantify contribution to proteogenic amino acid pools, the insoluble interphase layer containing proteins was washed three times with HPLC-grade acetone and allowed to dry overnight with gentle nitrogen flow in a needle evaporator. […]

8988T cells = assay: Alanine uptake from culture media conditioned by 8988T cells; assay type: cell-based; conditions: 10 μM, vs vehicle (DMSO), up to 96 hours
Method: (A) Alanine levels in culture media conditioned by 8988T cells treated with vehicle (DMSO) or fluvoxamine (FVX, 10 μM) over time. (B) Alanine uptake flux by 8988T cells treated with vehicle (DMSO) or fluvoxamine (FVX, 10 μM) for 96 hours. Data were normalized to cell growth over the treatment period. (C) Glutamine levels in culture media conditioned by 8988T cells treated with vehicle (DMSO) or fluvoxamine (FVX, 10 μM) over time. (D) Absolute values for amino acid uptake or secretion flux by 8988T cells treated with vehicle (DMSO) or fluvoxamine (FVX, 10 μM) for 96 hours. Data were normalized to cell growth over the treatment period.
Fluvoxamine (FVX), fluoxetine (FLX), paroxetine (PXT), sertindole (SND), and blonanserin (BNS) were acquired from Cayman Chemicals. Desipramine (DPM), α-(Methylamino) isobutyric acid (MeAIB), and L-alanine were acquired from Sigma. Stocks were prepared at 10 mM or 7.5 mM (BNS) in DMSO. Cells were treated with vehicle (DMSO) or varying concentrations of drug for indicated time. Conditioned media was collected and centrifuged at 1,000×g to remove cell debris followed by extraction of metabolites. For metabolite extraction, cells were first washed with ice cold 0.9% NaCl to remove media contamination followed by addition of 500 μL methanol (−20° C.) and 200 μL HPLC grade water (4° C.). […]

SLC38A2 = biological target: T1, SLC38A2 (Homo sapiens, UniProt Q96QD8); assay: SLC38A2 activity measured by MeAIB uptake in HY15549 dox-inducible SNAT2 cells; assay type: cell-based; conditions: 20 μm compound, MeAIB 0.3 mM, 1 hour, vs vehicle (PBS), HY15549 cells expressing dox-inducible SLC38A2/SNAT2
T1 construct: expressed in transfected cells; host or cells: HY15549 cells with dox-inducible SNAT2
T1 sequence (Q96QD8 1-506): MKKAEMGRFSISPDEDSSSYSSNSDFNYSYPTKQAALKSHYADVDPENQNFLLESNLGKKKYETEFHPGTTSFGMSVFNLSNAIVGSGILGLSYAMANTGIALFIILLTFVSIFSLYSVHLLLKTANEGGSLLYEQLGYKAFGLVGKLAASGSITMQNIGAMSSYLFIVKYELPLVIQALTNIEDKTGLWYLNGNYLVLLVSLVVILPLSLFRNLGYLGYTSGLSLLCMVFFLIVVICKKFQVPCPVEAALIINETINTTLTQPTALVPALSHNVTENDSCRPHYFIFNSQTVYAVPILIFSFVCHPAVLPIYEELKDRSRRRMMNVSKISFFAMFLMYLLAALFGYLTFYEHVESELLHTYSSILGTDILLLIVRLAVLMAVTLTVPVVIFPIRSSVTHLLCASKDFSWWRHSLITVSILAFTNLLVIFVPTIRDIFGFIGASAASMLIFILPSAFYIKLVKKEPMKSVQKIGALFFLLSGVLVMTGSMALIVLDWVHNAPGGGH
Method: (A) Schematic depicting SLC38A2-dependent update of alanine structural analog, methyl α-aminoisobutyrate (MeAIB). […] (B) Total ion chromatogram (TIC) of HY15549 dox-inducible SNAT2 cells treated with 1 mM MeAIB for 24 hours compared to vehicle (PBS). […] HY15549 dox-inducible SNAT2 cells were cultured with a concentration gradient of MeAIB for 15 minutes (gray circles) or 60 minutes (black squares). (D) Western blot depicting SLC38A2 expression relative to doxycycline after 24 hours culture in HY15549 dox-inducible SNAT2 cells. (E) Intracellular MeAIB levels in HY15549 dox-inducible cells cultured with dox (+SNAT2, left bar) and without dox (KO, right bar) for 24 hours with 1 mM MeAIB. (F) Intracellular MeAIB levels in HY15549 dox-inducible cells cultured with vehicle, paroxetine (PXT, 20 μM), or sertraline (SRT, 20 μm) for 24 hours with 300 μM MeAIB.

Row | SMILES | rescue of amino acid defect (change in intracellular amino acids relative to DMEM) (HY19636 cells) | alanine uptake in PDAC cells (8988T cells) | inhibition of MeAIB uptake (intracellular MeAIB levels) (SLC38A2)
1 | C[C@H](N)C(=O)OC(C)(C)C [L-alanine tert-butyl ester] | failed to rescue amino acid defect | – | –
2 | C[C@H](N)C(=O)O [L-alanine] | failed to rescue amino acid defect | – | –
3 | COCCCC/C(=N\OCCN)c1ccc(C(F)(F)F)cc1 [fluvoxamine] | – | significantly and specifically inhibits alanine uptake | inhibited

— patent US20220275376A1, “TARGETING SLC38A2 IN PANCREATIC CANCER” (New York University, priority 2019, published 2022)
